Key:
Assay in all cases: relative viability (nuclei count vs DMSO), 5 days (fraction); higher = more cells survive
[1] = compound: CCN(CCO)CCCC(C)Nc1ccnc2cc(Cl)ccc12 [Hydroxychloroquine] + C[C@@H](Oc1cc(-c2cnn(C3CCNCC3)c2)cnc1N)c1c(Cl)ccc(F)c1Cl [Crizotinib] (partner 1 µM)
Summary of the method: (§1)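 Relative viability equals treated-well nuclei counts divided by vehicle-well nuclei counts. Counts came from 4× images of lung cancer cell lines grown in 1536-well plates for 5 days after pin-tool dosing on the day after seeding. Dosing used one drug alone or a fixed anchor-drug dose plus five library-drug doses (not always all listed) in √10 steps, and values are medians of duplicate plates.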

[2] = compound: CCN(CCO)CCCC(C)Nc1ccnc2cc(Cl)ccc12 [Hydroxychloroquine] + Nc1nc2[nH]cc(CCc3ccc(C(=O)N[C@@H](CCC(=O)O)C(=O)O)cc3)c2c(=O)[nH]1 [Pemetrexed] (partner 0.2 µM)
Summary of the method: as §1

[3] = compound: CCN(CCO)CCCC(C)Nc1ccnc2cc(Cl)ccc12 [Hydroxychloroquine] + Cc1nc(Nc2ncc(C(=O)Nc3c(C)cccc3Cl)s2)cc(N2CCN(CCO)CC2)n1 [Dasatinib] (partner 0.075 µM)
Summary of the method: as §1

[4] = compound: CCN(CCO)CCCC(C)Nc1ccnc2cc(Cl)ccc12 [Hydroxychloroquine] + CS(=O)(=O)CCNCc1ccc(-c2ccc3ncnc(Nc4ccc(OCc5cccc(F)c5)c(Cl)c4)c3c2)o1 [Lapatinib] (partner 2 µM)
Summary of the method: as §1

Row | Cell Line | relative viability ([1]; first compound 0.5 µM) | relative viability ([1]; first compound 1.581 µM) | relative viability ([1]; first compound 5 µM) | relative viability ([1]; first compound 15.81 µM) | relative viability ([1]; first compound 50 µM) | relative viability ([2]; first compound 0.5 µM) | relative viability ([2]; first compound 1.581 µM) | relative viability ([2]; first compound 5 µM) | relative viability ([2]; first compound 15.81 µM) | relative viability ([2]; first compound 50 µM) | relative viability ([3]; first compound 0.5 µM) | relative viability ([3]; first compound 1.581 µM) | relative viability ([3]; first compound 5 µM) | relative viability ([3]; first compound 15.81 µM) | relative viability ([3]; first compound 50 µM) | relative viability ([4]; first compound 0.5 µM) | relative viability ([4]; first compound 1.581 µM) | relative viability ([4]; first compound 5 µM) | relative viability ([4]; first compound 15.81 µM) | relative viability ([4]; first compound 50 µM)
1 | NCI-H1792 | 0.951 | 1.05 | 1.01 | 1.08 | 1.07 | 0.694 | 0.831 | 0.755 | 0.641 | 0.859 | 0.922 | 0.936 | 0.759 | 0.825 | 0.711 | 0.889 | 0.923 | 0.831 | 0.793 | 0.93
2 | NCI-H1993 | 0.867 | 0.948 | 0.803 | 0.888 | 0.949 | 0.577 | 0.507 | 0.623 | 0.601 | 0.597 | 0.597 | 0.699 | 0.87 | 0.547 | 0.566 | 0.751 | 0.759 | 0.899 | 0.834 | 0.839
3 | NCI-H647 | 1.23 | 1.07 | 1.21 | 1.12 | 1.33 | 0.186 | 0.176 | 0.202 | 0.196 | 0.182 | 0.226 | 0.214 | 0.168 | 0.194 | 0.184 | 1.22 | 1.11 | 1.09 | 1.26 | 1.26
4 | NCI-H1563 | 0.808 | 0.833 | 0.848 | 0.83 | 0.806 | 0.888 | 0.692 | 0.724 | 0.78 | 0.875 | 0.509 | 0.501 | 0.449 | 0.475 | 0.421 | 0.839 | 0.756 | 0.951 | 0.798 | 0.866
5 | HCC-827 | 0.86 | 0.916 | 1.01 | 0.976 | 0.871 | 0.225 | 0.275 | 0.259 | 0.259 | 0.23 | 0.306 | 0.378 | 0.312 | 0.388 | 0.314 | 0.202 | 0.222 | 0.212 | 0.183 | 0.205
6 | NCI-H2228 | 0.461 | 0.46 | 0.46 | 0.491 | 0.427 | 0.329 | 0.352 | 0.348 | 0.311 | 0.331 | 0.53 | 0.456 | 0.516 | 0.524 | 0.506 | 1.05 | 0.999 | 0.972 | 0.705 | 1.18
7 | NCI-H2170 | 1.24 | 1.24 | 1.35 | 1.27 | 1.57 | 0.341 | 0.265 | 0.255 | 0.233 | 0.29 | 0.645 | 0.601 | 0.558 | 0.62 | 0.673 | 0.261 | 0.251 | 0.275 | 0.276 | 0.267
8 | EMC-BAC-2 | 0.826 | 0.743 | 0.741 | 0.755 | 0.807 | 0.49 | 0.439 | 0.434 | 0.313 | 0.411 | 0.309 | 0.381 | 0.347 | 0.329 | 0.345 | 0.96 | 0.722 | 0.897 | 0.832 | 0.956
9 | NCI-H23 | 0.473 | 0.537 | 0.579 | 0.446 | 0.603 | 1.21 | 0.663 | 0.609 | 0.56 | 0.74 | 0.87 | 0.683 | 0.879 | 0.807 | 0.795 | 1.08 | 0.915 | 0.957 | 1.22 | 1.1
10 | SK-LU-1 | 0.948 | 0.895 | 0.911 | 0.928 | 0.938 | 1.02 | 0.876 | 0.953 | 1.11 | 1.03 | 0.214 | 0.168 | 0.174 | 0.16 | 0.17 | 0.932 | 0.845 | 0.896 | 0.871 | 0.909
11 | NCI-H358 | 0.515 | 0.579 | 0.587 | 0.516 | 0.591 | 0.164 | 0.166 | 0.179 | 0.161 | 0.179 | 0.177 | 0.131 | 0.139 | 0.144 | 0.155 | 0.487 | 0.432 | 0.412 | 0.486 | 0.476
12 | LC-2-ad | 0.44 | 0.426 | – | 0.473 | 0.547 | 0.272 | 0.273 | 0.244 | 0.261 | 0.282 | 0.56 | 0.684 | 0.603 | 0.639 | 0.595 | 0.977 | 0.958 | 0.979 | 0.999 | 1.02
13 | HCC-15 | 0.884 | 0.818 | 0.867 | 1.01 | 0.94 | 0.231 | 0.241 | 0.205 | 0.226 | 0.231 | 0.621 | 0.578 | 0.581 | 0.609 | 0.627 | 0.847 | 0.812 | 0.873 | 0.867 | 0.836
14 | NCI-H2405 | 0.856 | 0.813 | 0.867 | 0.88 | 0.864 | 1.07 | 1.05 | 0.984 | 0.515 | 1.03 | 0.225 | 0.164 | 0.225 | 0.203 | 0.204 | 1.09 | 0.998 | 1.1 | 1.04 | 1.15
15 | LXF-289 | 0.838 | 0.773 | 0.803 | 0.822 | 0.853 | 0.886 | 0.908 | 0.92 | 0.929 | 0.927 | 0.234 | 0.212 | 0.217 | 0.202 | 0.195 | 0.868 | 0.906 | 0.911 | 0.848 | 0.891
16 | CAL-12T | 0.577 | 0.614 | 0.92 | 0.579 | 0.831 | 1.15 | 1.18 | 1.31 | 1.27 | 1.33 | 0.573 | 0.399 | 0.352 | 0.351 | 0.404 | 0.752 | – | 0.659 | 0.633 | 0.691

From the supplement of paper PMC10307832
